Source: patent US20100267561A1, “HERBICIDAL PYRIDAZINONE DERIVATIVES” (priority 2007, published 2010)
Like-named read-outs stand apart in the source and are kept apart here.

Assays:
Test in all cases: Test B pre-/postemergence plant response
Format in all cases: in vivo
[1] = tested on: yellow nutsedge (Cyperus esculentus); conditions: for Nutsedge, Yellow plant response rating: 8 g ai/ha; for pest or weed control at 16 g/ha / pest or weed control at 31 g/ha / pest or weed control at 62 g/ha: Cyperus, read-out: Plant response rating, Nutsedge, Yellow; for pest or weed control at 16 g/ha: 16 g ai/ha; for pest or weed control at 31 g/ha: 31 g ai/ha; for pest or weed control at 62 g/ha: 62 g ai/ha
How it was run: (§1)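 Preemergence and postemergence (plants 2-18 cm, 1- to 4-leaf stage) applications used test chemicals in a non-phytotoxic solvent with surfactant. Plants were held in a greenhouse 13 to 15 days, then rated visually against controls on a 0-100 scale (0 no effect, 100 complete control).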

[2] = tested on: giant foxtail (Setaria faberii); conditions: for Foxtail, Giant plant response rating: 8 g ai/ha; for pest or weed control at 16 g/ha / pest or weed control at 31 g/ha / pest or weed control at 62 g/ha: Setaria faberi, read-out: Plant response rating, Foxtail, Giant; for pest or weed control at 16 g/ha: 16 g ai/ha; for pest or weed control at 31 g/ha: 31 g ai/ha; for pest or weed control at 62 g/ha: 62 g ai/ha
How it was run: as §1

[3] = tested on: velvetleaf (Abutilon theophrasti); conditions: for Velvetleaf plant response rating: 8 g ai/ha; for pest or weed control at 16 g/ha: 16 g ai/ha; for pest or weed control at 62 g/ha: 62 g ai/ha
How it was run: as §1

[4] = tested on: lambsquarters (Chenopodium album); conditions: for Lambsquarters plant response rating: 8 g ai/ha; for pest or weed control at 16 g/ha / pest or weed control at 31 g/ha / pest or weed control at 62 g/ha: Chenopodium album, read-out: Plant response rating, Lambsquarters; for pest or weed control at 16 g/ha: 16 g ai/ha; for pest or weed control at 31 g/ha: 31 g ai/ha; for pest or weed control at 62 g/ha: 62 g ai/ha
How it was run: as §1

wild oat (Avena fatua) = conditions: for pest or weed control at 16 g/ha / pest or weed control at 31 g/ha / pest or weed control at 62 g/ha: Avena fatua, read-out: Plant response rating, Oat, Wild; for pest or weed control at 16 g/ha: 16 g ai/ha; for pest or weed control at 31 g/ha: 31 g ai/ha; for pest or weed control at 62 g/ha: 62 g ai/ha
How it was run: as §1

[5] = tested on: bermudagrass (Cynodon dactylon); conditions: for pest or weed control at 16 g/ha / pest or weed control at 31 g/ha / pest or weed control at 62 g/ha: Cynodon dactylon, read-out: Plant response rating, Bermudagrass; for pest or weed control at 16 g/ha: 16 g ai/ha; for pest or weed control at 31 g/ha: 31 g ai/ha; for pest or weed control at 62 g/ha: 62 g ai/ha
How it was run: as §1

[6] = post-emergence, Postemergence, scale 0 to 100
[7] = post-emergence, Postemergence, scale 0 to 100, 0 no effect, 100 complete control
[8] = pre-emergence, Preemergence, scale 0 to 100 (0 no effect, 100 complete control)
[9] = pre-emergence, Preemergence, 0 to 100 scale, 0 no effect, 100 complete control
[10] = pre-emergence, Preemergence, scale 0 to 100
[11] = 8 g ai/ha, postemergence, 0-100 scale

With `CCc1c(C)c(-c2ccc(Cl)cc2)nn1-c1c(O)cnn(C)c1=O` [Compound 26, 4-[3-(4-chlorophenyl)-5-ethyl-4-methyl-1H-pyrazol-1-yl]-5-hydroxy-2-methyl-3(2H)-pyridazinone] the “Nutsedge, Yellow plant response rating” value ([1]; postemergence, 0-100 scale) was 0, the pest or weed control at 16 g/ha [1, 6] was 0% and the pest or weed control at 31 g/ha [1, 7] was 0%. The pest or weed control at 62 g/ha [1, 7] was 0%, the pest or weed control at 16 g/ha [1, 8] was 0% and the pest or weed control at 31 g/ha [1, 9] was 0%. The pest or weed control at 62 g/ha [1, 10] was 0%, the “Nutsedge, Yellow plant response rating” value ([1]; Preemergence, scale 0 to 100) was 0 and the “Foxtail, Giant plant response rating” value ([2]; postemergence, 0-100 scale) was 80. The “Foxtail, Giant plant response rating” value ([2]; Preemergence, scale 0 to 100) was 65, the pest or weed control at 16 g/ha [2, 6] was 95% and the pest or weed control at 31 g/ha [2, 7] was 95%. For the same compound, the pest or weed control at 62 g/ha [2, 7] was 100%, the pest or weed control at 16 g/ha [2, 8] was 95% and the pest or weed control at 31 g/ha [2, 9] was 100%. The pest or weed control at 62 g/ha [2, 10] was 100%, the “Velvetleaf plant response rating” value ([3]; postemergence, 0-100 scale) was 0 and the pest or weed control at 16 g/ha ([3]; Abutilon theophrasti, post-emergence, Postemergence, scale 0 to 100, read-out: Plant response rating, Velvetleaf) was 0%. It also gave a pest or weed control at 62 g/ha ([3]; Abutilon theophrasti, post-emergence, Postemergence, scale 0 to 100, 0 no effect, 100 complete control, read-out: Plant response rating, Velvetleaf) of 0%, a pest or weed control at 16 g/ha ([3]; Abutilon theophrasti, pre-emergence, Preemergence, scale 0 to 100 (0 no effect, 100 complete control), read-out: Plant response rating, Velvetleaf) of 0% and a pest or weed control at 31 g/ha ([3]; Abutilon theophrasti, pre-emergence, Preemergence, 31 g ai/ha, 0 to 100 scale, 0 no effect, 100 complete control, read-out: Plant response rating, Velvetleaf) of 0%. The pest or weed control at 62 g/ha ([3]; Abutilon theophrasti, pre-emergence, Preemergence, scale 0 to 100, read-out: Plant response rating, Velvetleaf) was 0%, the “Velvetleaf plant response rating” value ([3]; Preemergence, scale 0 to 100) was 0 and the “Lambsquarters plant response rating” value ([4]; postemergence, 0-100 scale) was 0. It also gave a pest or weed control at 16 g/ha [4, 6] of 0%, a pest or weed control at 31 g/ha [4, 7] of 0% and a pest or weed control at 62 g/ha [4, 7] of 0%. The pest or weed control at 16 g/ha [4, 8] was 0%, the pest or weed control at 31 g/ha [4, 9] was 0% and the pest or weed control at 62 g/ha [4, 10] was 0%. For the same compound, the “Lambsquarters plant response rating” value ([4]; Preemergence, scale 0 to 100) was 0, the “Oat, Wild plant response rating” value (wild oat (Avena fatua); [11]) was 85 and the pest or weed control at 16 g/ha (wild oat (Avena fatua); [6]) was 90%. The pest or weed control at 31 g/ha (wild oat (Avena fatua); [7]) was 90%, the pest or weed control at 62 g/ha (wild oat (Avena fatua); [7]) was 100% and the pest or weed control at 16 g/ha (wild oat (Avena fatua); [8]) was 80%. The pest or weed control at 31 g/ha (wild oat (Avena fatua); [9]) was 85%, the pest or weed control at 62 g/ha (wild oat (Avena fatua); [10]) was 85% and the “Bermudagrass plant response rating” value [5, 11] was 0. The pest or weed control at 16 g/ha [5, 6] was 0%, the pest or weed control at 31 g/ha [5, 7] was 0% and the pest or weed control at 62 g/ha [5, 7] was 0%. It also gave a pest or weed control at 16 g/ha [5, 8] of 0%, a pest or weed control at 31 g/ha [5, 9] of 0% and a pest or weed control at 62 g/ha [5, 10] of 80%.
